Data taken from patent publication US6696417B1, “Skin and hair darkening composition” (Chesebrough-Pond's USA Co., division of Conopco, Inc., priority 1997, dated 2004).

Columns and labels:
[1] = test system: tyrosinase; assay: In vitro enhancement of melanin formation (Example 3); type: biochemical; conditions: 18 nmoles polyamino acid; DL-DOPA, 20 nmoles lysozyme, 0.45 mg tyrosinase, acetate buffer pH 5.0; absorbance at 400 nm; control 0.120
Protocol: (§1) The assay conditions for the formation of melanin under in vitro conditions are as follows.
The control assay mixture contained 5 mmoles of DL-DOPA (Dihydroxy phenyl alanine), lysozyme 20 nmoles and 0.45 mg of tyrosinase in acetate buffer pH 5.0 in a test tube. In the experimental set 18 nmoles of the polyglutamate, a polyamino acid sequence with pI 2.5 or polyarginine pI 10.9 or polylysine pI 11.0 was used in addition to the other ingredients as defined in the control. The melanin formed was washed with the buffer, suspended in 1 N sodium hydroxide and dissolved by heating the sample at 60° C. for 5 minutes. The absorbance was measured at 400 nm.

[2] = test system: tyrosinase; assay: In vitro enhancement of melanin formation (Example 1); type: biochemical
Description: as §1
The control assay mixture contained 5 pmoles of DL-DOPA (Dihydroxy phenyl alanine), 20nmoles lysozyme and 3.2 units of tyrosinase in acetate buffer pH 5.0 in a test tube. A unit is defined as the amount of tyrosinase needed to convert 1 nmol DOPA in one minute. In the experimental set 11 nmoles of polylysine, a polyamino acid sequence with pI 11.0, was used in addition to the other ingredients as defined in the control. The melanin formed was washed with the acetate buffer, suspended in 1N sodium hydroxide and dissolved by heating the sample at 60° C. for 5 minutes. The absorbance was measured at 400 nm.

Substance | Melanin formed A 400 [1] | Melanin formed A 400 ([2]; 11 nmoles polyamino acid, DL-DOPA, 20 nmoles lysozyme, 3.2 units tyrosinase, acetate buffer pH 5.0, absorbance at 400 nm, control 0.120) | melanin production (in words) ([2]; in presence of polylysine versus control, pH 5)
polyarginine | 0.182 |  | 
polyglutamate [reference compound] | 0.048 |  | 
polylysine | 0.168 | 0.168 | significantly enhanced
